Columns and labels:
Assay in all cases: Histone peptide microarray
Assay type in all cases: binding, human
PHF8 = conditions: sheet "Array Heatmap"; GST-tagged PHF8; arrays performed twice, total replicate number n = 4
Outline: (§1)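 Binding read as mean relative signal from 4 replicates; microarray held 293 synthetic histone peptides with single or combinatorial PTMs. Each GST-tagged PHD reader was applied at 0.5 μM using the optimized Petell protocol.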

KDM5A (3) = conditions: sheet "Array Heatmap"; GST-tagged KDM5A (3); arrays performed twice, total replicate number n = 4
Outline: as §1

KDM5B (3) = conditions: sheet "Array Heatmap"; GST-tagged KDM5B (3); arrays performed twice, total replicate number n = 4
Outline: as §1

KDM4C (TTP) = conditions: sheet "Array Heatmap"; GST-tagged KDM4C (TTP); arrays performed twice, total replicate number n = 4
Outline: as §1

KDM7A = conditions: sheet "Array Heatmap"; GST-tagged KDM7A; arrays performed twice, total replicate number n = 4
Outline: as §1

TAF3 = conditions: sheet "Array Heatmap"; GST-tagged TAF3; arrays performed twice, total replicate number n = 4
Outline: as §1

PHF23 = conditions: sheet "Array Heatmap"; GST-tagged PHF23; arrays performed twice, total replicate number n = 4
Outline: as §1

CHD5 (PCC) = conditions: sheet "Array Heatmap"; GST-tagged CHD5 (PCC); arrays performed twice, total replicate number n = 4
Outline: as §1

DPF2 (PPC2W2) = conditions: sheet "Array Heatmap"; GST-tagged DPF2 (PPC2W2); arrays performed twice, total replicate number n = 4
Outline: as §1

PHF2 = conditions: sheet "Array Heatmap"; GST-tagged PHF2; arrays performed twice, total replicate number n = 4
Outline: as §1

BAZ2B = conditions: sheet "Array Heatmap"; GST-tagged BAZ2B; arrays performed twice, total replicate number n = 4
Outline: as §1

ING2 = conditions: sheet "Array Heatmap"; GST-tagged ING2; arrays performed twice, total replicate number n = 4
Outline: as §1

MLL5 = conditions: sheet "Array Heatmap"; GST-tagged MLL5; arrays performed twice, total replicate number n = 4
Outline: as §1

KDM5B (1) = conditions: sheet "Array Heatmap"; GST-tagged KDM5B (1); arrays performed twice, total replicate number n = 4
Outline: as §1

RAG2 = conditions: sheet "Array Heatmap"; GST-tagged RAG2; arrays performed twice, total replicate number n = 4
Outline: as §1

PHRF1 (RP) = conditions: sheet "Array Heatmap"; GST-tagged PHRF1 (RP); arrays performed twice, total replicate number n = 4
Outline: as §1

AIRE (PP) = conditions: sheet "Array Heatmap"; GST-tagged AIRE (PP); arrays performed twice, total replicate number n = 4
Outline: as §1

ING5 = conditions: sheet "Array Heatmap"; GST-tagged ING5; arrays performed twice, total replicate number n = 4
Outline: as §1

ING4 = conditions: sheet "Array Heatmap"; GST-tagged ING4; arrays performed twice, total replicate number n = 4
Outline: as §1

PHF13 = conditions: sheet "Array Heatmap"; GST-tagged PHF13; arrays performed twice, total replicate number n = 4
Outline: as §1

TRIM66 (PB) = conditions: sheet "Array Heatmap"; GST-tagged TRIM66 (PB); arrays performed twice, total replicate number n = 4
Outline: as §1

DIDO1 = conditions: sheet "Array Heatmap"; GST-tagged DIDO1; arrays performed twice, total replicate number n = 4
Outline: as §1

ING3 = conditions: sheet "Array Heatmap"; GST-tagged ING3; arrays performed twice, total replicate number n = 4
Outline: as §1

MORC3 (CW) = conditions: sheet "Array Heatmap"; GST-tagged MORC3 (CW); arrays performed twice, total replicate number n = 4
Outline: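 Each reader, produced as a GST fusion and purified, was tested at 0.5 μM on synthetic histone peptides (293 in total) carrying single or combinatorial marks. Intensities averaged over four replicates.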

CHD4 (PPCC) = conditions: sheet "Array Heatmap"; GST-tagged CHD4 (PPCC); arrays performed twice, total replicate number n = 4
Outline: as §1

PHF21A = conditions: sheet "Array Heatmap"; GST-tagged PHF21A; arrays performed twice, total replicate number n = 4
Outline: as §1

KDM5A (1) = conditions: sheet "Array Heatmap"; GST-tagged KDM5A (1); arrays performed twice, total replicate number n = 4
Outline: as §1

BPTF (PB) = conditions: sheet "Array Heatmap"; GST-tagged BPTF (PB); arrays performed twice, total replicate number n = 4
Outline: as §1

SP140L = conditions: sheet "Array Heatmap"; GST-tagged SP140L; arrays performed twice, total replicate number n = 4
Outline: as §1

ING1 = conditions: sheet "Array Heatmap"; GST-tagged ING1; arrays performed twice, total replicate number n = 4
Outline: as §1

CHD5 (PPCC) = conditions: sheet "Array Heatmap"; GST-tagged CHD5 (PPCC); arrays performed twice, total replicate number n = 4
Outline: as §1

“H3.3K27me3: H3.3 15-34 [Peptide H3.3K27me3]” was tested. Which “Array Heatmap signal, PHF8” value (PHF8) did it give?
The value was 0.4126.

What about the “Array Heatmap signal, KDM5A (3)” value (KDM5A (3)) of the same substance?
The value was 0.4949.

What about the “Array Heatmap signal, KDM5B (3)” value (KDM5B (3)) of the same substance?
The value was 0.5372.

What about the “Array Heatmap signal, KDM4C (TTP)” value (KDM4C (TTP)) of the same substance?
Its value is 0.5632.

And the “Array Heatmap signal, KDM7A” value (KDM7A)?
Its value is 0.3849.

And the “Array Heatmap signal, TAF3” value (TAF3)?
The value was 0.2913.

And the “Array Heatmap signal, PHF23” value (PHF23)?
Its value is 0.6091.

What about the “Array Heatmap signal, CHD5 (PCC)” value (CHD5 (PCC)) of the same substance?
Its value is 0.8198.

And the “Array Heatmap signal, DPF2 (PPC2W2)” value (DPF2 (PPC2W2))?
Its value is 0.7311.

What about the “Array Heatmap signal, PHF2” value (PHF2) of the same substance?
Its value is 0.5285.

And the “Array Heatmap signal, BAZ2B” value (BAZ2B)?
The value was 0.5914.

What about the “Array Heatmap signal, ING2” value (ING2) of the same substance?
The value was 0.6109.

What about the “Array Heatmap signal, MLL5” value (MLL5) of the same substance?
The value was 0.5722.

What about the “Array Heatmap signal, KDM5B (1)” value (KDM5B (1)) of the same substance?
Its value is 0.6871.

And the “Array Heatmap signal, RAG2” value (RAG2)?
Its value is 0.2705.

And the “Array Heatmap signal, PHRF1 (RP)” value (PHRF1 (RP))?
Its value is 0.5177.

What about the “Array Heatmap signal, AIRE (PP)” value (AIRE (PP)) of the same substance?
Its value is 0.536.

And the “Array Heatmap signal, ING5” value (ING5)?
The value was 0.4224.

What about the “Array Heatmap signal, ING4” value (ING4) of the same substance?
Its value is 0.5176.

And the “Array Heatmap signal, PHF13” value (PHF13)?
Its value is 0.7006.

And the “Array Heatmap signal, TRIM66 (PB)” value (TRIM66 (PB))?
The value was 0.6617.

And the “Array Heatmap signal, DIDO1” value (DIDO1)?
The value was 0.7249.

And the “Array Heatmap signal, ING3” value (ING3)?
The value was 0.5349.

What about the “Array Heatmap signal, MORC3 (CW)” value (MORC3 (CW)) of the same substance?
Its value is 0.4234.

And the “Array Heatmap signal, CHD4 (PPCC)” value (CHD4 (PPCC))?
The value was 0.5987.

And the “Array Heatmap signal, PHF21A” value (PHF21A)?
Its value is 0.5192.

What about the “Array Heatmap signal, KDM5A (1)” value (KDM5A (1)) of the same substance?
The value was 0.5261.

What about the “Array Heatmap signal, BPTF (PB)” value (BPTF (PB)) of the same substance?
The value was 0.4048.

What about the “Array Heatmap signal, SP140L” value (SP140L) of the same substance?
Its value is 0.3923.

What about the “Array Heatmap signal, ING1” value (ING1) of the same substance?
The value was 0.5843.

And the “Array Heatmap signal, CHD5 (PPCC)” value (CHD5 (PPCC))?
The value was 0.6383.
